Results published in patent US10815237B2, “Antimicrobials and methods of making and using same” (BIOVERSYS AG, priority 2016, dated 2020).

Key:
[1] = system: Staphylococcus aureus (S. aureus) 11540 strain; assay: standard microdilution MIC, S. aureus; assay type: cell-based; conditions: Staphylococcus aureus
Description: (§1) The in vitro activity of the compounds of the present disclosure can be determined. Antimicrobial testing is typically performed to determine the minimum inhibitory concentration (MIC). Minimum inhibitory concentrations (MICs) are determined by the microdilution method in a final volume of 100 μl according to protocols outlined by The Clinical and Laboratory Standards Institute (CLSI). Performance standards for reference strains are assessed within the same experimental design to maintain quality control. See, for example, Clinical Laboratory Standards Institute: Methods for dilution antimicrobial susceptibility tests for bacteria that grow aerobically M7-A8. Approved Standard-Eighth Edition. Wayne, Pa.: CLSI; December 2008; and Clinical Laboratory Standards Institute: Performance Standards for Antimicrobial Susceptibility Testing M100-S20; Approved Standard-Twentieth Edition. Wayne, Pa.: CLSI; June 2010.
(§2) The compounds of the present disclosure were tested for antimicrobial activity. The Compounds 1-23 were run against Eschericia coli (E. coli) strain ATCC25922 and against Staphylococcus aureus (S. aureus) 11540 strain using a standard microdilution assay to determine minimum inhibitory concentrations (MICs). […] It will be recognized by one skilled in the art that the compounds can be assessed against other bacterial organisms and that the presentation of data for activity against Eschericia coli and Staphylococcus aureus are illustrative and in no way is intended to limit the scope of the present disclosure. The compounds of the present disclosure can be assayed against a range of other microorganisms depending upon the performance activity desired to be gathered. Furthermore, the “+” and “−” representation and the selection of a cutoff value of 16 micrograms/mL is also illustrative and in no way is intended to limit the scope of the present disclosure.

[2] = system: Eschericia coli (E. coli) strain ATCC25922; assay: standard microdilution MIC, E. coli; assay type: cell-based, Escherichia coli; conditions: Escherichia coli
Description: as §1, §2

[3] = system: Chinese hamster ovary (CHO) cells; assay: cytotoxicity against CHO cell line (Cell Titer Blue); assay type: cell-based; conditions: Cricetulus griseus, 24 h, CHO-K1 cells, 24 hours incubation, percent cell kill
Description: The compounds of the present disclosure were tested for cytotoxicity against Chinese hamster ovary (CHO) cells.
The assay was performed by seeding CHO—K1 in F12K medium containing 13.33% Fetal Bovine Serum […]. 37.5 μl of cell suspension at a concentration of 9,500 cells/well was plated into each column of a 384-well black clear bottom assay plate with the exception of a negative (no cell) control column, and allowed to adhere for 2 hours. The culture media was then removed from the 175 cm^2 flask(s) and the cell monolayer washed with 10 mL of Phosphate Buffered Saline PBS. 3 mL of Cellstripper™ was then added and the flask was incubated for approximately 5 min at 37° C. The cells were dissociated by agitation and 7 mL of F 12K medium containing 10% FBS was added to the flask. A homogeneous cell suspension was obtained by trituration of the flask. The cells were counted with a hemocytometer by diluting an aliquot of the cell suspension in PBS with 0.4% trypan blue. Typically, a ratio of 100 μl cell suspension to 1800 μl PBS to 100 μl trypan blue was used.
The volume of cell suspension containing the number of cells needed to seed the plate(s) (15.2 mL containing 3.8×10^6 cells) was calculated and transferred to a 50 mL centrifuge tube with the appropriate volume of media. 37.5 μl of cells were added to each well of the 384 well plate except for the negative (no cell) control column. A cytotoxicity 100-fold dilution plate was then prepared by manually pipetting 18 μl of 100% DMSO into two columns of an empty low volume dilution plate. 2 μl of a 50 mM solution of compounds 1-23 from the translation plate were manually pipetted into the corresponding columns of the 100-fold dilution plate. 10 μl of 100% DMSO was manually pipetted into all remaining columns of the 100-fold plate.
A 4-fold cytotoxicity plate was prepared beforehand by manually pipetting 48 μl of F12K media (without DMSO and without FBS) into each well of a matrix 384 well plate. The test samples in the 100-fold dilution plate were mixed and diluted. Ten 2-fold dilutions were performed for each compound in duplicate. The 384 cannula array then transferred 2 μl to the 48 μl of media in the cytotoxicity 4-fold dilution plate. The array was then mixed and 12.5 μl of samples from the cytotoxicity 4-fold dilution plate were transferred to the 37.5 μl of cells and media. The final top concentration of samples at this point in the procedure was 50 μM with 10 subsequent 1:2 dilutions down to […]. The final DMSO concentration were 1% and the final concentration of FBS was 10%.
Cycloheximide was run as a control. Specifically, Cycloheximide was diluted to 0.1 mM from 100 mM stock […] and was added to the cytotoxicity 100-fold plate. Upon addition to the cell plate, a range of 1 μM to 1 nM of cycloheximide was run.
A column separate from the one (referred to above) that served as the negative control was used for cell control wells to which only media was added.
The plates were then incubated for 24 hours at 37° C. and 5% CO2. […] The two columns used earlier to prepare the 100-fold dilution plate by pipetting 18 μl of 100% DMSO contained the samples tested at 200 μM. After the 24 hour incubation period, the 4 μl of Cell Titer blue was added to each well using a Multichannel Matrix pipettor. The plates were returned to the incubator and incubated for an additional 5 hours. Fluorescence (530 nm excitation wavelength/590 nm emission wavelength) was measured on a Wallac Victor microplate reader.
Cell viability was assessed fluorometrically after a 5 hour incubation with resazurin (Cell Titer Blue™), which is reduced by living cells to the fluorescent resorufin.
The average fluorescence for the negative control was determined to obtain the average blank fluorescence. The average blank fluorescence was subtracted from the fluorescence values obtained for all the test agents. The resulting values are the corrected fluorescence. […]

| MIC [1] | MIC [2] | Structure (SMILES) | IC50 [3] |
| --- | --- | --- | --- |
| ≤ 16 µg/mL | ≤ 16 µg/mL | C[C@H](N)CCCc1cc(-c2cc3cn(-c4ccc([C@@H]5CCC[C@@H](CCNC(=N)CN)N5CCCF)cc4)c(=O)nc3[nH]2)cc(C(F)(F)F)c1 [Compound 23] | > 100 µM |
| ≤ 16 µg/mL | ≤ 16 µg/mL | C=C[C@H](N)CCCc1cc(-c2cc3cn(-c4ccc([C@@H]5CCC[C@@H](CCNC(=N)CN)N5CCCF)cc4)c(=O)nc3[nH]2)cc(C(F)(F)F)c1 [Compound 56] | > 100 µM |
| ≤ 16 µg/mL | ≤ 16 µg/mL | C[C@H](N)CCCc1cc(Cl)c(F)c(-c2cc3cn(-c4ccc([C@@H]5CCC[C@@H](CCNC(=N)[C@H](N)CO)N5)cc4)c(=O)nc3[nH]2)c1 [Compound 58] | > 100 µM |
| ≤ 16 µg/mL | ≤ 16 µg/mL | N=C(CN)NCC[C@@H]1CCC[C@@H](c2ccc(-n3cc4cc(-c5cc(CCC[C@@H](N)C6CC6)cc(C(F)(F)F)c5)[nH]c4nc3=O)cc2)N1CCCF [Compound 42] | > 100 µM |
| ≤ 16 µg/mL | ≤ 16 µg/mL | CSC[C@H](N)CCCc1cc(Cl)c(F)c(-c2cc3cn(-c4ccc([C@@H]5CCC[C@@H](CCNC(=N)CN)N5)cc4)c(=O)nc3[nH]2)c1 [Compound 19] | > 100 µM |
| ≤ 16 µg/mL | ≤ 16 µg/mL | N=C(CN)NCC[C@@H]1CCC[C@@H](c2ccc(-n3cc4cc(-c5cc(CCC[C@@H](N)C6CC6)cc(Cl)c5F)[nH]c4nc3=O)cc2)N1 [Compound 12] | > 100 µM |
| ≤ 16 µg/mL | ≤ 16 µg/mL | N=C(CN)NCC[C@@H]1CCC[C@@H](c2ccc(-n3cc4cc(-c5cc(CCC[C@@H](N)CO)cc(Cl)c5F)[nH]c4nc3=O)cc2)N1 [Compound 16] | 50.9 µM |
| ≤ 16 µg/mL | ≤ 16 µg/mL | C[C@H](N)CCCc1cc(-c2cc3cn(-c4ccc([C@@H]5CCC[C@@H](CCNC(=N)CN)N5CCCF)c(F)c4)c(=O)nc3[nH]2)cc(C(F)(F)F)c1 [Compound 44] | > 100 µM |
| ≤ 16 µg/mL | ≤ 16 µg/mL | C[C@H](N)CCCc1cc(-c2cc3cn(-c4ccc([C@@H]5CCC[C@@H](CCNC(=N)CN)N5)cc4)c(=O)nc3[nH]2)cc(C(F)(F)F)c1 [Compound 17] | > 100 µM |

More lines, now with the values behind:

| Structure (SMILES) | MIC [1] | MIC [2] | IC50 [3] |
| --- | --- | --- | --- |
| CSc1cc(-n2cc3cc(-c4cc(CCC[C@H](C)N)cc(C(F)(F)F)c4)[nH]c3nc2=O)cc(F)c1[C@@H]1CCC[C@@H](CCNC(=N)CN)N1CCCF [Compound 51] | ≤ 16 µg/mL | > 16 µg/mL | > 100 µM |
| C=C[C@H](N)CCCc1cc(Cl)c(F)c(-c2cc3cn(-c4cc(F)c([C@@H]5CCC[C@@H](CCNC(=N)CN)N5CCCF)c(SC)c4)c(=O)nc3[nH]2)c1 [Compound 65] | ≤ 16 µg/mL | ≤ 16 µg/mL | 5.2 µM |
| C=C[C@@H](CCNC(=N)CN1CCOCC1)NCc1ccc(-n2cc3cc(-c4cc(CCC[C@H](C)N)cc(Cl)c4F)[nH]c3nc2=O)cc1 [Compound 1] |  |  | > 100 µM |
| CSc1cc(-n2cc3cc(-c4cc(CCC[C@@H](N)C5CC5)cc(Cl)c4F)[nH]c3nc2=O)ccc1[C@@H]1CCC[C@@H](CCNC(=N)CN)N1CCCF [Compound 48] | ≤ 16 µg/mL | ≤ 16 µg/mL | 13.5 µM |
| N=C(CN)NCC[C@@H]1CCC[C@@H](c2ccc(-n3cc4cc(-c5cc(CCC[C@@H](N)C6CC6)cc(C(F)(F)F)c5)[nH]c4nc3=O)cc2F)N1CCCF [Compound 43] | ≤ 16 µg/mL | ≤ 16 µg/mL | > 100 µM |
| C=C[C@H](CCNC(=N)CN1CCSCC1)NCc1ccc(-n2cc3cc(-c4cc(CCC[C@H](C)N)cc(Cl)c4F)[nH]c3nc2=O)cc1 [Compound 3] | ≤ 16 µg/mL | ≤ 16 µg/mL | > 100 µM |
| N=C(CN)NCC[C@@H]1CCC[C@@H](c2ccc(-n3cc4cc(-c5cc(CCC[C@@H](N)C6CC6)cc(Cl)c5F)[nH]c4nc3=O)cc2)N1CCCF [Compound 45] | ≤ 16 µg/mL | ≤ 16 µg/mL | > 100 µM |
| C=C[C@H](N)CCCc1cc(Cl)c(F)c(-c2cc3cn(-c4ccc([C@@H]5CCC[C@@H](CCNC(=N)CN)N5CCCF)cc4)c(=O)nc3[nH]2)c1 [Compound 64] | ≤ 16 µg/mL | ≤ 16 µg/mL | > 100 µM |
| CSc1cc(-n2cc3cc(-c4cc(CCC[C@@H](N)C5CC5)cc(C(F)(F)F)c4)[nH]c3nc2=O)ccc1[C@@H]1CCC[C@@H](CCNC(=N)CN)N1CCCF [Compound 53] | ≤ 16 µg/mL | ≤ 16 µg/mL | > 100 µM |
| C=C[C@H](N)CCCc1cc(-c2cc3cn(-c4ccc([C@@H]5CCC[C@@H](CCNC(=N)CN)N5CCCF)c(F)c4)c(=O)nc3[nH]2)cc(C(F)(F)F)c1 [Compound 63] | ≤ 16 µg/mL | ≤ 16 µg/mL | > 100 µM |
| C=C[C@@H](CCNC(=N)CN1CC[C@H](F)C1)NCc1ccc(-n2cc3cc(-c4cc(CCC[C@H](C)N)cc(Cl)c4F)[nH]c3nc2=O)cc1 [Compound 5] | ≤ 16 µg/mL | ≤ 16 µg/mL | > 100 µM |
| C[C@H](N)CCCc1cc(Cl)c(F)c(-c2cc3cn(-c4ccc([C@@H]5CCC[C@@H](CCNC(=N)CN)N5)c(F)c4)c(=O)nc3[nH]2)c1 [Compound 13] | ≤ 16 µg/mL | ≤ 16 µg/mL | > 100 µM |
| CSc1cc(-n2cc3cc(-c4cc(CCC[C@H](C)N)cc(Cl)c4F)[nH]c3nc2=O)ccc1[C@@H]1CCC[C@@H](CCNC(=N)CN)N1 [Compound 10] | ≤ 16 µg/mL | ≤ 16 µg/mL | > 100 µM |
| CSc1cc(-n2cc3cc(-c4cc(CCC[C@H](C)N)cc(C(F)(F)F)c4)[nH]c3nc2=O)ccc1[C@@H]1CCC[C@@H](CCNC(=N)CN)N1CCCF [Compound 22] | ≤ 16 µg/mL | ≤ 16 µg/mL | > 100 µM |
| Cc1c2cc(-c3cc(CCC[C@H](C)N)cc(Cl)c3F)[nH]c2nc(=O)n1-c1ccc([C@@H]2CCC[C@@H](CCNC(=N)CN)N2)cc1 [Compound 69] | ≤ 16 µg/mL | ≤ 16 µg/mL | > 100 µM |
| C[C@H](N)CCCc1cc(Cl)c(F)c(-c2cc3cn(-c4ccc([C@H](C)NCCCNC(=N)CN)cc4)c(=O)nc3[nH]2)c1 [Compound 9] | ≤ 16 µg/mL | ≤ 16 µg/mL | > 100 µM |
| CSc1cc(-n2cc3cc(-c4cc(CCC[C@H](C)N)cc(Cl)c4F)[nH]c3nc2=O)cc(F)c1[C@@H]1CCC[C@@H](CCNC(=N)CN)N1CCCF [Compound 50] | ≤ 16 µg/mL | ≤ 16 µg/mL | 10.1 µM |
| C=C[C@@H](CCNC(=N)CN1CCOCC1)NCc1ccc(-n2cc3cc(-c4cc(CCC[C@H](C)N)cc(Cl)c4F)[nH]c3nc2=O)cc1 [Compound 6] | ≤ 16 µg/mL | ≤ 16 µg/mL |  |
